From patent US20200399329A1, “ANTIMICROBIAL PEPTIDES” (priority 2015, published 2020)
Converted amounts (≈) assume the structure as drawn. Like-named read-outs stand apart in the source and are kept apart here. Where a SMILES comes first, the peptide text is derived from it.

What was measured:
[1] = Preliminary IP safety in mice; type: in vivo
Experimental: IP administration of OMN6: OMN6 was administered IP to mice in order to evaluate and quantitate any toxic effects if present. OMN6 peptide was administered via intraperitoneal injection according to concentrations and groups detailed in Table 10.
Mice used in this experiment: Outbred Hsd: ICR (CD-1®)—weight 18-20 g. Saline solution (0.9% NaCl) supplemented with 4 mM C2H3NaO2 (sodium acetate) as sham treatment, or OMN6 dissolved in saline were administered as specified in […] A total volume of 100 μl was administered to each animal.
Mortality of mice in experiment group was monitored in comparison to a Sham (CTRL) group. Food and water consumption, post treatment, was monitored by individual weight measurements once every two days. At the end of the experiment, blood was taken from all animals, and a 200 μl volume of complete blood was separated and plasma was analyzed for erythrocyte hemolysis.
Experimental Map: • 1. Mice (six per group) were given a single-dose administration on day 1, according to group specification (Table 10). Food and water consumption (weight analysis) along with mortality of mice in all groups were monitored for 3 days post treatment. At the end of the four day trial, the animals were sacrificed. • 2. Free Hgb (hemoglobin) assay was performed on day 4, on all samples from all groups, for erythrocyte hemolysis analysis. • 3. Water/food availability, temperature and other conditions remained unchanged between the groups for the entire four day trial. • 4. The Erythrocyte hemolysis analysis was performed via hemoglobin assay kit (Sigma-Aldrich, 3 Plaut St. Rehovot, Israel).

E. coli ESBL BAA-198 = type: cell-based, Escherichia coli
Experimental: (§1) In order to determine the Minimal Bactericidal Concentration (MBC) values of the peptides, colony formation of various bacteria strains was monitored and determined after treatment with the peptides of the invention. Multi-Drug Resistant A. baumannii bacteria were cultured with or without OMN6 in increasing concentrations, as is detailed in FIG. 6 and Example 6. Immediately afterwards, samples of each experimental group were diluted to 1×10^4 to 1×10^6 as necessary, and further, the samples were plated on appropriate medium-agar plates. All the plates were incubated at 37° C. for 24-48 hours. Colonies were counted and CFU/ml in the original sample, prior to plating, were calculated and determined. An example of the plates, after incubation, is presented in FIG. 7 where the plate on the left side of the image is the CTRL sample treated with DDW and in the right side of the image increasing concentrations of OMN6 are presented, as specified therein.
(§2) The experimental system and parameters described here were used to determine the MBC values of OMN2, OMN6, OMN7 and OMN11 on various bacteria strains with and without the supplementation of 10% FBS (Table 6 and Table 8).

[2] = system: human primary erythrocytes; assay: Hemolysis, cell count and MCV of human primary erythrocytes; type: cell-based
Experimental: Since the peptides of the invention are intended inter-alia to operate in wounds or other damaged tissue, a direct contact with patients' blood may occur. Accordingly, an experiment was conducted in order to assess whether OMN6 has cytotoxic effects on human primary erythrocytes. These cells lack any defense mechanism to protect them against damage to the plasma membrane and therefor are a standard model for evaluating cytotoxic effects on eukaryotic cells. The parameter that was measured was the ability of OMN6 to cause hemolysis, red blood cells death, in human erythrocytes. The experiments were performed on human blood samples using ABX PENTRA DF120 machine routinely used by hospital personnel to conduct such tests.
The Mean Corpuscular Volume (MCV) of the erythrocytes is a well-accepted indication of the cells' health and membrane integrity. The experiment was conducted to assess whether OMN6, which forms pores in bacterial membranes, has the ability to damage human cells plasma-membrane. […] (Table 5).
Table 4 and Table 5: hemolysis and Mean Corpuscular Values (MCV) of human primary erythrocytes were evaluated after treatment with OMN6.

E. coli [3] = assay: E. coli growth monitored via OD600 nm with CecA or OMN6; type: cell-based
Experimental: An assay was conducted in order to compare the antimicrobial activity of the native peptide Cecropin A (CecA) vs. a peptide of the invention OMN6. E. coli bacteria were cultured with CecA or OMN6 in concentration of 12.5 μM for 17-20 hours. The growth of the bacteria was continuously monitored via spectrophotometry at 600 nm. As bacterial growth progresses, OD600 nm values rise, and where the growth is inhibited OD600 nm values remain constant. […] The bacteria completely overcame the inhibitory effect of CecA after 10 hours. The bacteria then continued to thrive and grow to density similar to that of the CTRL group.

A. baumannii BAA-1793 = type: cell-based, Acinetobacter baumannii; details: FIG. 7
Experimental: as §1, §2

E. coli [4] = assay: Antimicrobial activity after pre-treatment of peptide with Proteinase-K; type: cell-based; details: 12.5 μM peptide pre-treated with 20 ng ProtK for 2 hours at 37° C., 18 hours
Experimental: The susceptibility of OMN6/CecA to proteolytic degradation was assessed and the effects of stability on activity were determined. Native peptide-CecA and engineered peptide-OMN6 were incubated with 20 ng of Proteinase-K (ProtK) at 37° C. for two hours (left bars and right bars, respectively). E. coli at 500,000 CFU/ml were incubated for 18 hours with either CecA or OMN6 pretreated with ProtK. After the incubation, bacterial survival was determined via absorption at OD600 nm and via CFU count on agar plates.

[5] = IP single dose 16 mg/kg, four-day experiment

## CC[C@H](C)[C@H](NC(=O)CNC(=O)[C@H](CC(=O)O)NC(=O)[C@H](CCCNC(=N)N)NC(=O)[C@@H](NC(=O)[C@H](CC(N)=O)NC(=O)[C@H](CCC(N)=O)NC(=O)CNC(=O)[C@@H](NC(=O)[C@H](CCCCN)NC(=O)[C@H](CCC(=O)O)NC(=O)[C@@H](NC(=O)[C@H](CCCCN)NC(=O)[C@H](CCCCN)NC(=O)[C@H](Cc1ccccc1)NC(=O)[C@H](CC(C)C)NC(=O)[C@H](CCCCN)NC(=O)[C@H](Cc1c[nH]c2ccccc12)NC(=O)[C@H](CCCCN)NC(=O)[C@H](CS)NC(=O)[C@@H](N)CCSC)[C@@H](C)CC)C(C)C)[C@@H](C)CC)C(=O)N[C@H](C(=O)N[C@@H](CCCCN)C(=O)N[C@@H](C)C(=O)NCC(=O)N1CCC[C@H]1C(=O)N[C@@H](C)C(=O)N[C@H](C(=O)N[C@@H](C)C(=O)N[C@H](C(=O)N[C@H](C(=O)NCC(=O)N[C@@H](CCC(N)=O)C(=O)N[C@@H](C)C(=O)N[C@H](C(=O)N[C@@H](CCC(N)=O)C(=O)N[C@H](C(=O)N[C@@H](C)C(=O)N[C@@H](CCCCN)C(=O)N[C@@H](CS)C(N)=O)[C@@H](C)CC)[C@@H](C)O)C(C)C)C(C)C)C(C)C)[C@@H](C)CC [OMN6] (H-MCKWKLFKKIEKVGQNIRDGIIKAGPAVAVVGQATQIAKC-NH2; N-terminus and C-terminus assumed)
[1]; IP single dose 16 mg/kg (data not shown)
  Histological analysis: No evidence of pathological changes or aberrations
[1]; IP single dose 16 mg/kg, day 4
  Hemolysis of erythrocytes (Free Hgb assay): No evidence of hemolysis
[1]; [5]
  Clinical signs (diarrhea, bloody diarrhea, stand-on-end hair, apathy or restlessness): not observed
  Mortality: not observed
  Toxic or otherwise adverse effects: does not exert any toxic or otherwise adverse effects
  Weight-loss: not observed
E. coli ESBL BAA-198
  MBC: 5 µM (≈ 21.7 µg/mL)
[2]; OMN6 10 μM, 30 min
  Erythrocytes Mean Corpuscular Volume (MCV): 64
  Number of live erythrocytes: 1.69 cells*10^6/ml
[2]; OMN6 10 μM, 60 min
  Erythrocytes Mean Corpuscular Volume (MCV): 64
  Number of live erythrocytes: 1.66 cells*10^6/ml
[2]; OMN6 10 μM, 120 min
  Erythrocytes Mean Corpuscular Volume (MCV): 63
  Number of live erythrocytes: 1.68 cells*10^6/ml
[2]; OMN6 10 μM, 180 min
  Erythrocytes Mean Corpuscular Volume (MCV): 64
  Number of live erythrocytes: 1.67 cells*10^6/ml
[2]; OMN6 20 μM, 30 min
  Erythrocytes Mean Corpuscular Volume (MCV): 64
  Number of live erythrocytes: 1.65 cells*10^6/ml
[2]; OMN6 20 μM, 60 min
  Erythrocytes Mean Corpuscular Volume (MCV): 64
  Number of live erythrocytes: 1.70 cells*10^6/ml
[2]; OMN6 20 μM, 120 min
  Erythrocytes Mean Corpuscular Volume (MCV): 63
  Number of live erythrocytes: 1.71 cells*10^6/ml
[2]; OMN6 20 μM, 180 min
  Erythrocytes Mean Corpuscular Volume (MCV): 64
  Number of live erythrocytes: 1.70 cells*10^6/ml
[2]; OMN6 40 μM, 30 min
  Erythrocytes Mean Corpuscular Volume (MCV): 64
  Number of live erythrocytes: 1.60 cells*10^6/ml
[2]; OMN6 40 μM, 60 min
  Erythrocytes Mean Corpuscular Volume (MCV): 64
  Number of live erythrocytes: 1.80 cells*10^6/ml
[2]; OMN6 40 μM, 120 min
  Erythrocytes Mean Corpuscular Volume (MCV): 63
  Number of live erythrocytes: 1.77 cells*10^6/ml
[2]; OMN6 40 μM, 180 min
  Erythrocytes Mean Corpuscular Volume (MCV): 64
  Number of live erythrocytes: 1.76 cells*10^6/ml
[2]; human blood samples
  Hemolysis of human erythrocytes: hemolysis of cells did not occur
E. coli [3]; 12.5 μM, 17-20 hours
  Inhibition of E. coli growth (OD600 nm): completely inhibited bacterial growth
E. coli [3]; 12.5 μM, E. coli
  Duration of growth inhibition: more than 17 hours
E. coli [3]; E. coli, experiment groups of Example 2 plated
  Colonies after plating (bactericidal nature): no colonies present
A. baumannii BAA-1793; OMN6 0.62 μM and 1.25 μM
  Colony formation of Multi-Drug Resistant A. baumannii after plating: no inhibition of growth
A. baumannii BAA-1793; OMN6 2.5 μM, 5 μM and 10 μM
  Colony formation of Multi-Drug Resistant A. baumannii after plating: void of colonies
E. coli [4]
  Bacterial survival/growth as percent of CTRL group: less than 10%
